In patent publication US20260109674A1, “ALLOSTERIC MODULATION OF MUSCARINIC ACETYLCHOLINE RECEPTOR EFFICACY” (The University of Toledo, priority 2022, published 2026):
Counter-ions that a name gives are not always drawn. Marks after values point to notes of the source that are not given here.

Assays:
[1] = target: T1, M1 muscarinic receptors expressed in CHO cells (Homo sapiens, UniProt P11229); test: [3H]-arachidonic acid release screen with and without ACh and modulator; format: cell-based; settings: for Ratio of response of ACh with modulator to response of ACh alone, 0.1 μM ACh / Ratio of response of ACh with modulator to response of ACh alone, 100 μM ACh / Stimulation of [3H]AA release, No ACh (fraction of stimulation above the control): 10 μM modulator, Table 1; for Modulation of ACh activity (in words): [3H]AA release
T1 construct: expressed in transfected cells; host or cells: CHO (CHO-hM1, stably transfected)
T1 sequence (P11229 1-460): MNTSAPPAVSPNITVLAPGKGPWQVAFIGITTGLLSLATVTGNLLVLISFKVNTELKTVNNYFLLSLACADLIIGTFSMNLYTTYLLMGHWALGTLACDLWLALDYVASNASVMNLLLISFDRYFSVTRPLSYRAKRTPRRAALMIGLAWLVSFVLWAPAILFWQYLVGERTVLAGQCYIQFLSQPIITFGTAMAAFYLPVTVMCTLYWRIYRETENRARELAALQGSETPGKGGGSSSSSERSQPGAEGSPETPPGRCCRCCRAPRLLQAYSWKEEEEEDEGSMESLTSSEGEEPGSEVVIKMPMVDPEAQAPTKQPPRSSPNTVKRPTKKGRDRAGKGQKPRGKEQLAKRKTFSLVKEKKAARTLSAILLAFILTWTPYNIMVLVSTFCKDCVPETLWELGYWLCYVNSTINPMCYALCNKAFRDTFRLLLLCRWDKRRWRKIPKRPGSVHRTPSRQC

[2] = target: T1, M1 muscarinic receptors expressed in CHO cells; test: Full ACh dose-response curves of [3H]AA release fitted to the allosteric operational model; format: cell-based; settings: for Effect on ACh potency and efficacy in full ACh dose-response curves (in words): modulator 10 μM
Procedure: Measurement of [^3H]AA release was performed. Stably transfected CHO-hM1 or CHO-hM3 cells were seeded on 24-well plates (Greiner Bio-One GmbH, Frickenhausen, Germany) at a density of 5.0×10^4 cells/well in 0.5 ml of F-12 medium. Cells were incubated until they attached (approximately 3 h), followed by the addition of [^3H]AA to a final concentration of 0.05 μCi of [^3H]AA per well. The cells were then grown for 16 to 20 h before the assay was performed. [^3H]AA release was measured in Eagle's basal medium with 20 mM HEPES and 2 mg/ml fatty acid-free bovine serum albumin (EM-BSA). Cells were rinsed twice with EM-BSA, followed by the addition of EM-BSA media containing experimental agents and incubated for 1 h at 37° C. The assay was terminated by aspiration of the media, and the amount of [^3H]AA released was determined by liquid scintillation counting (Beckman-Coulter LS6500).
Tabulated [^3H]AA release data are represented as a fraction of maximal release in the presence of 100 μM ACh or as the fraction of release elicited by the appropriate concentration of ACh alone, as indicated dose-response curves were normalized to the maximal response of ACh without allosteric ligand. Some response curves were analyzed using the empirical four-parameter equation: […]
where X is the log of the concentration of the ligand used, Y is the amount of response, C50 is the concentration of the ligand that produces 50% of the maximal effect, Top and Bottom are the top and bottom plateaus of the curve, respectively, and n is related to the Hill slope for the curve. In some cases, families of response curves were analyzed according to the allosteric operational model:
where EM is the maximal response; A is the concentration of ACh; B is the concentration of the allosteric ligand; τA and τB represent the intrinsic efficacies of A and B, respectively; KA and KB are the equilibrium dissociation constants of A and B, respectively; and α and β represent the cooperativities between A and B in terms of binding and activation, respectively. Curve-fitting was carried out with GraphPad Prism, version 5.0 or 6.0 (San Diego CA).

[3] = system: wild-type zebrafish larvae; test: General locomotor assay in zebrafish larvae (locomotor activity, repetitive behaviors); format: in vivo, Danio rerio
[4] = system: wild-type zebrafish larvae; test: Maximum tolerated concentration (MTC) determination in zebrafish larvae; format: in vivo, Danio rerio; settings: after 24-hour exposure; Table 3
[5] = Table 3, test concentration not given, N = 12
[6] = best-fit parameter, allosteric operational model, with ACh

Structure (SMILES) | Ratio of response of ACh with modulator to response of ACh alone, 0.1 μM ACh [1] | Ratio of response of ACh with modulator to response of ACh alone, 100 μM ACh [1] | Stimulation of [3H]AA release, No ACh (fraction of stimulation above the control) [1] | Modulation of ACh activity (in words) ([1]; modulator 10 μM) | Effect on ACh potency and efficacy in full ACh dose-response curves (in words) [2] | Angular Velocity [3, 5] | Total Distance Moved [3, 5] | Variance of Turn Angle [3, 5] | Maximum Tolerated Concentration [4] | Intrinsic agonist activity (in words) ([1]; modulator 10 μM, without ACh) | Intrinsic Efficacy-B, τB ([2]; best-fit parameter, allosteric operational model, Em set to 2.0) | Activation cooperativity, A-B, β [2, 6] | Binding cooperativity, A-B, α [2, 6] | Kb ([2]; best-fit parameter, read-out: Affinity-B, KB (converted)) | Effect on locomotor activity, angular velocity and turn angle (in words) ([3]; spontaneous swimming period)
CCN(CC)CCOc1c(Br)cc(CN2C(=O)C(=O)c3ccccc32)cc1Br [Compound 8l, 1-(3,5-dibromo-4-(2-(diethylamino)ethoxy)benzyl)indoline-2,3-dione hydrochloride] | 0.19 ± 0.06 | 0.87 ± 0.06 | 0.04 ± 0.00 | results only in a decrease in ACh activity | decreased ACh potency with little impact on ACh efficacy | 184.7 ± 17.0*** % of control | 33.5 ± 4.4** % of control | 166.1 ± 12.5*** % of control | 10 µM | – | – | – | – | – | –
CCN(CC)CCOc1ccc(CN2C(=O)C(=O)c3ccccc32)cc1 [Compound 7, 1-(4-(2-(diethylamino)ethoxy)benzyl)indoline-2,3-dione] | 0.08 ± 0.02 | 1.11 ± 0.06 | 0.02 ± 0.01 | primarily decreased potency and slightly enhanced the efficacy of ACh activity | decreased ACh potency with little impact on ACh efficacy | – | – | – | 10 µM | lacked intrinsic activity at the 10 μM concentration | 0.0317 ± 0.0205 | 0.991 ± 0.120 | 0.180 ± 0.0855 | 0.631 µM | did not significantly alter locomotor activity, angular velocity, and turn angle
